Reference: US7001735B2, “Glucose transporter/sensor protein and uses thereof” (Albert Einstein College of Medicine of Yeshiva University, priority 2000, dated 2006)

Experiments:
GLUTx [1] = experiment: Immunocytochemical localisation of GLUTx in insulin-stimulated MTLn3 cells; format: cell-based, rat; details: insulin 500 nM, 1 h, basal state perinuclear Golgi region, data not shown
Protocol: (§1) Immunohistochemistry was performed according to protocols provided by the Dako LSAB (labeled streptoavidin biotin reagents) and Dako EnVision+System (peroxidase, DAB) kits. However, some modifications were made. In brief, tissue on a slide was deparaffinized in xylene, and rehydrated in water. For cells that were processed, the slides or coverslips containing the cells were fixed in 4% paraformaldehyde for 1 h, then washed 4 times in buffered solution (TBS). The slides were placed in 3% H2O2 for 15 min in a 37° C. water bath to quench endogenous peroxidase activity. Epitope retrieval in paraffin-embedded tissue was achieved by heating the slides to 95° C. in a pre-heated citric acid solution (0.01 M citric acid, 0.01 M sodium citrate; pH 6.0). This temperature was maintained for 15 min in a microwave on high power or in a steam bath. The slides then were cooled. At this point, processing was started for the slides containing fixed cells.
(§2) Next, the primary antibody to GLUTx was applied to the slides for 30 min at room temperature (RT). Slides were rinsed in TBS 3 times for 5 min. The slides then were incubated with secondary antibody, as provided in the kit, for 15–20 min at RT. The slides were rinsed well with PBS, and the tertiary reagent (Strep-Avidin or HRP-labeled EnVision polymer) was applied for 15–20 min at RT. […]

GLUTx [2] = experiment: Immunocytochemical localisation of GLUTx in insulin-stimulated MTC cells; format: cell-based, rat; details: insulin 500 nM, 1 h, basal state mainly perinuclear Golgi region, data not shown
Protocol: as §1, §2

For “insulin: hormone used to stimulate the cells (500 nM for 1 h)”, the “distribution of GLUTx (light microscopy)” value (GLUTx [1]) was “also associated with the cell membrane” and the “distribution of GLUTx (light microscopy)” value (GLUTx [2]) was “localized also on the cell membrane”.
